#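 Growth conditions: 96-well plates. Treatment: test compound, 48 hours, 5 concentrations. Analysis: linear interpolation between bracketing concentrations; unreached endpoints set to highest concentration. Here, GI50 denotes the concentration required for 50% inhibition of growth.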 Calls of active or inactive are those of the source. Cut-off read from the data, not from the text of the source: active = GI50 up to about 1.1 µM and inactive = higher.
# What was measured:
# Test in all cases: DTP human tumour cell line panel, 48 h
# COLO 205 = tested on: COLO 205
# UACC-62 = tested on: UACC-62
# CCRF-CEM = tested on: CCRF-CEM
# SK-MEL-5 = tested on: SK-MEL-5
# SNB-78 = tested on: SNB-78
# HT-29 = tested on: HT-29
# M19-MEL = tested on: M19-MEL
# NCI-H460 = tested on: NCI-H460
# RPMI-8226 = tested on: RPMI-8226
# NCI-H522 = tested on: NCI-H522
# MOLT-4 = tested on: MOLT-4
# SK-MEL-28 = tested on: SK-MEL-28
# SK-OV-3 = tested on: SK-OV-3
# SF-295 = tested on: SF-295
# HL-60 = tested on: HL-60
# 786-0 = tested on: 786-0
# MDA-MB-435 = tested on: MDA-MB-435
# T47D = tested on: T47D
# MDA-N = tested on: MDA-N
# PC-3 = tested on: PC-3
SMILES,GI50 (COLO 205),GI50 (UACC-62),GI50 (CCRF-CEM),GI50 (SK-MEL-5),GI50 (SNB-78),GI50 (HT-29),GI50 (M19-MEL),GI50 (NCI-H460),GI50 (RPMI-8226),GI50 (NCI-H522),GI50 (MOLT-4),GI50 (SK-MEL-28),GI50 (SK-OV-3),GI50 (SF-295),GI50 (HL-60),GI50 (786-0),GI50 (MDA-MB-435),GI50 (T47D),GI50 (MDA-N),GI50 (PC-3)
O=C1c2ccccc2C(O)(C(=O)O)C1(O)CC=C(Cl)Cl (stereo unspecified),> 125 µM (inactive),> 125 µM (inactive),> 125 µM (inactive),> 125 µM (inactive),> 125 µM (inactive),> 125 µM (inactive),> 125 µM (inactive),> 125 µM (inactive),> 125 µM (inactive),> 125 µM (inactive),> 125 µM (inactive),> 125 µM (inactive),> 125 µM (inactive),> 125 µM (inactive),> 125 µM (inactive),–,–,–,–,–
Clc1ccccc1C(n1ncc2ccccc21)n1ncc2ccccc21,–,> 10 µM (inactive),28.5 µM (inactive),30.4 µM (inactive),71.1 µM (inactive),35.9 µM (inactive),23.1 µM (inactive),35.8 µM (inactive),18.2 µM (inactive),15.1 µM (inactive),18.9 µM (inactive),53.2 µM (inactive),> 10 µM (inactive),64.6 µM (inactive),18.6 µM (inactive),65.9 µM (inactive),–,–,–,–
COc1ccc(C(c2ccc(C(C)C)cc(=O)c2O)c2ccc3cccnc3c2O)cc1 (stereo unspecified),1.05 µM (active),0.735 µM (active),0.604 µM (active),0.507 µM (active),1.05 µM (active),3.07 µM (inactive),0.484 µM (active),0.297 µM (active),1.97 µM (inactive),1.8 µM (inactive),0.558 µM (active),–,2.3 µM (inactive),0.337 µM (active),0.863 µM (active),1.63 µM (inactive),–,–,–,–
Clc1cc2nsnc2c(Cl)n1,15.3 µM (inactive),26.5 µM (inactive),6.03 µM (inactive),16.9 µM (inactive),56.4 µM (inactive),21.7 µM (inactive),24.7 µM (inactive),38.5 µM (inactive),22.2 µM (inactive),18.4 µM (inactive),14.2 µM (inactive),20.1 µM (inactive),2.62 µM (inactive),41.5 µM (inactive),14.1 µM (inactive),16.9 µM (inactive),–,–,–,–
CC1CC(C)(O)C2C3(C)CCCC2(COC3=O)C12CCC1(CCOC1=O)O2 (stereo unspecified),> 250 µM (inactive),> 250 µM (inactive),> 250 µM (inactive),> 250 µM (inactive),> 250 µM (inactive),> 250 µM (inactive),> 250 µM (inactive),> 250 µM (inactive),> 250 µM (inactive),> 250 µM (inactive),> 250 µM (inactive),> 250 µM (inactive),> 250 µM (inactive),> 250 µM (inactive),> 250 µM (inactive),–,–,–,–,–
Cc1c2ccncc2c(C)c2c1[nH]c1ccccc12 [ELLIPTECINE],0.502 µM (active),1.48 µM (inactive),0.411 µM (active),0.944 µM (active),1.48 µM (inactive),0.863 µM (active),0.857 µM (active),0.15 µM (active),0.617 µM (active),1.16 µM (inactive),0.256 µM (active),1.5 µM (inactive),1.61 µM (inactive),0.805 µM (active),0.883 µM (active),–,–,–,–,–
CN1Cc2cc3c(cc2-c2ccccc21)OCO3,> 100 µM (inactive),> 100 µM (inactive),> 100 µM (inactive),> 100 µM (inactive),> 100 µM (inactive),> 100 µM (inactive),> 100 µM (inactive),> 100 µM (inactive),> 100 µM (inactive),> 100 µM (inactive),> 100 µM (inactive),> 100 µM (inactive),> 10 µM (inactive),> 100 µM (inactive),> 100 µM (inactive),> 100 µM (inactive),–,–,–,–
CS(=O)(=O)OCCCNCCCOS(C)(=O)=O,1730 µM (inactive),393 µM (inactive),262 µM (inactive),1550 µM (inactive),2100 µM (inactive),1210 µM (inactive),1580 µM (inactive),156 µM (inactive),1310 µM (inactive),1850 µM (inactive),189 µM (inactive),2440 µM (inactive),1550 µM (inactive),526 µM (inactive),201 µM (inactive),881 µM (inactive),2340 µM (inactive),573 µM (inactive),2350 µM (inactive),1270 µM (inactive)
CC1(C)N=C(N)N=C(N)N1c1ccc(CCc2ccccc2)cc1,1.36 µM (inactive),1.02 µM (active),1.91 µM (inactive),0.741 µM (active),13.6 µM (inactive),0.565 µM (active),2.84 µM (inactive),0.508 µM (active),17.4 µM (inactive),3.03 µM (inactive),3.61 µM (inactive),6.01 µM (inactive),48.4 µM (inactive),2.17 µM (inactive),13.3 µM (inactive),–,–,–,–,–
Cc1cc(N(CCC#N)CCC#N)ccc1/C=C(\NC(=O)/C=C/c1ccccc1)C(=O)Nc1ccccc1Cl,> 100 µM (inactive),> 100 µM (inactive),> 100 µM (inactive),> 100 µM (inactive),> 100 µM (inactive),> 100 µM (inactive),> 100 µM (inactive),> 100 µM (inactive),> 100 µM (inactive),–,> 100 µM (inactive),> 100 µM (inactive),–,92 µM (inactive),> 100 µM (inactive),> 100 µM (inactive),–,–,–,–
CCn1c(=O)c(C(=O)O)c(Cl)c2cc3c(cc21)OCO3,> 100 µM (inactive),> 100 µM (inactive),> 100 µM (inactive),> 100 µM (inactive),> 100 µM (inactive),> 100 µM (inactive),> 100 µM (inactive),> 100 µM (inactive),> 100 µM (inactive),> 100 µM (inactive),> 100 µM (inactive),> 100 µM (inactive),> 100 µM (inactive),> 100 µM (inactive),> 100 µM (inactive),–,–,–,–,–
COC(=O)C1Cc2c([nH]c3ccccc23)C=N1 (stereo unspecified),> 100 µM (inactive),> 100 µM (inactive),> 100 µM (inactive),> 100 µM (inactive),> 100 µM (inactive),> 100 µM (inactive),74.8 µM (inactive),> 100 µM (inactive),> 100 µM (inactive),> 100 µM (inactive),> 100 µM (inactive),> 100 µM (inactive),> 100 µM (inactive),> 100 µM (inactive),> 100 µM (inactive),> 100 µM (inactive),–,–,–,–
CC(C)CCCC(C)[C@H]1CCC(C2C[C@@H](O)[C@@H]3CC(O)[C@@H](O)C[C@]3(CO)C2=O)[C@]1(C)CCO (stereo partly specified),20 µM (inactive),19.2 µM (inactive),17 µM (inactive),14.2 µM (inactive),32.7 µM (inactive),19.5 µM (inactive),21 µM (inactive),21.8 µM (inactive),27.1 µM (inactive),26.3 µM (inactive),0.491 µM (active),21.8 µM (inactive),25.8 µM (inactive),20.4 µM (inactive),16.1 µM (inactive),–,–,–,–,–
C=CC1(C)CCC2=C(CCC3C(C)(C(=O)OC)CCCC23C)C1=O (stereo unspecified),19.1 µM (inactive),18.3 µM (inactive),21.4 µM (inactive),16.7 µM (inactive),18.8 µM (inactive),17 µM (inactive),18.7 µM (inactive),18.3 µM (inactive),21.7 µM (inactive),15.1 µM (inactive),–,–,18.9 µM (inactive),27 µM (inactive),28.7 µM (inactive),–,–,–,–,–
COc1cc(-c2cc(O)c3cc4c(cc3n2)OCO4)cc(OC)c1OC,> 100 µM (inactive),51.5 µM (inactive),> 100 µM (inactive),> 100 µM (inactive),> 100 µM (inactive),> 100 µM (inactive),> 100 µM (inactive),> 100 µM (inactive),> 100 µM (inactive),62.7 µM (inactive),> 100 µM (inactive),> 100 µM (inactive),37.5 µM (inactive),–,> 100 µM (inactive),> 100 µM (inactive),–,–,–,–
OCC1OC(n2cnc3c2NC=NC[C@H]3O)C(O)C1O (stereo partly specified),> 450 µM (inactive),> 450 µM (inactive),172 µM (inactive),> 71.3 µM (inactive),> 450 µM (inactive),> 450 µM (inactive),> 450 µM (inactive),164 µM (inactive),201 µM (inactive),312 µM (inactive),318 µM (inactive),> 450 µM (inactive),234 µM (inactive),> 450 µM (inactive),86.7 µM (inactive),–,–,–,–,–
COc1ccc(C(=O)C(C(=O)C(=O)NC2C3CC4CC(C3)CC2C4)c2ccc(OC)cc2)cc1 (stereo unspecified),> 100 µM (inactive),> 100 µM (inactive),> 100 µM (inactive),> 100 µM (inactive),> 100 µM (inactive),> 100 µM (inactive),> 100 µM (inactive),> 100 µM (inactive),> 100 µM (inactive),> 100 µM (inactive),> 100 µM (inactive),> 100 µM (inactive),> 100 µM (inactive),> 100 µM (inactive),> 100 µM (inactive),> 100 µM (inactive),–,–,–,–
